Assays:
[1] = test system: rat CPB model; test: Standardized functional neurologic (neuromotor) testing after CPB; type: in vivo; conditions: for neurologic outcome, difference among groups: 12th postoperative day
From the text: The methodology of the CPB model used in the current study has been previously reported (Anesthesiology 2001, 95:1485-91). Briefly, anesthesia was induced in male Sprague-Dawley rats (12-14 weeks, 350-380 gm; Harlan, Indianapolis, Ind.) with 5% isoflurane in oxygen-enriched air in a plastic box. Following orotracheal intubation with a 14-gauge cannula, the lungs were mechanically ventilated (40% O2/balance N2) to maintain a PaCO2 of 36-42 mmHg. During surgical preparation, anesthesia was maintained with 2.0-2.5% isoflurane and the rectal and pericranial temperatures were monitored and servo-controlled at 37.5±0.1° C. (YSI 400 series thermistor and 73ATA Indicating controller; YSI, Yellow Springs, Ohio) with a heating blanket and convective forced-air heating system. The superficial caudal epigastric artery, a branch of a femoral artery, was cannulated with PE-10 tubing for monitoring mean arterial pressure (MAP). During cardiopulmonary bypass (CPB) rats were anesthetized with fentanyl (30 μg/kg, i.v.), midazolam (0.4 mg/kg, i.v.) and atracurium (0.5 mg/kg, i.v.) as a bolus of injection and followed by a continuous infusion of the mixture of three with a syringe pump (2.5 μg/kg/min for fentanyl, 0.03 mg/kg/min for midazolam and 0.08 mg/kg/min for atracurium). Pilot studies had been confirmed that with this anesthetic regimen, the animals had enough depth of anesthesia during CPB.
The CPB circuit (FIG. 2) consisted of a venous reservoir, a peristaltic pump and a membrane oxygenator, all of which were connected via 1.6 mm internal diameter silicone tubing (Tygon®; Cole-Parmer Instrument Co., Vernon Hills, Ill.). The CPB circuit was primed with approximately 40 ml of whole blood obtained prior to the start of the experiment from two heparinized (100IU/rat, i.v.) donor rats (275-320 gm) which were exsanguinated under isoflurane anesthesia. The drained blood traversed a warmed venous reservoir (jacketed with circulating water from a heat pump) to a peristaltic pump (Masterflex®; Cole-Parmer Instrument Co., Vernon Hills, Ill.) to a membrane oxygenator (a modified Cobe Micro® neonatal oxygenator with a surface area of 0.33 m^2; Cobe Cardiovascular, Inc., Arvada, Colo.). A closed-circuit gas delivery system fed the appropriate gas into the oxygenator after which blood was inflsed back into the rat. An in-line flow probe (2N806 flow probe and T208 volume flowmeter; Transonics Systems, Inc., Ithaca, N.Y.) was used to continuously measure CPB flow. Arterial line inflow temperature was maintained at 37.5° C. using a circulating water bath system. The venous oxygen saturation from the venous return line was measured continuously using an Oximetrix® Monitor and Opticath® Catheter (Abbot Laboratories, North Chicago, Ill.). Arterial blood gases were performed using a IL 1306 blood gas analyzer (Instrument Laboratories, Inc., Lexington, Mass.) with hemoglobin determined using an OSM3 Hemoximeter® (Radiometer Inc., Copenhagen, Denmark).
After complete of all surgical procedures as described as above, rats were randomly divided into one of four groups. […] CPB group: rats (n=10) were subjected to 60 min of non-pulsatile CPB with a membrane oxygenator receiving a mixture of 30% O2 and 65% N2. CPB+MK801 group: rats (n=10) received MK801 (0.15 mg/kg, i.v.) 15 min prior to 60 min of CPB with similar concentrations of gases as in group 2. The dose of MK801 was chosen from pilot studies, in which its side effect can be kept at minmal level. CPB+Xenon group: rats (n=10) underwent 60 min of CPB with a membrane oxygenator receiving a mixture of 30% O2 and 60% xenon. […]

[2] = test system: rat CPB model; test: Morris water maze neurocognitive testing after CPB; type: in vivo; conditions: 10 postoperative days; speeds 4.7 to 6.2 inch/sec
From the text: The methodology of the CPB model used in the current study has been previously reported (Anesthesiology 2001, 95:1485-91). Briefly, anesthesia was induced in male Sprague-Dawley rats (12-14 weeks, 350-380 gm; Harlan, Indianapolis, Ind.) with 5% isoflurane in oxygen-enriched air in a plastic box. Following orotracheal intubation with a 14-gauge cannula, the lungs were mechanically ventilated (40% O2/balance N2) to maintain a PaCO2 of 36-42 mmHg. During surgical preparation, anesthesia was maintained with 2.0-2.5% isoflurane and the rectal and pericranial temperatures were monitored and servo-controlled at 37.5±0.1° C. (YSI 400 series thermistor and 73ATA Indicating controller; YSI, Yellow Springs, Ohio) with a heating blanket and convective forced-air heating system. […]
The CPB circuit (FIG. 2) consisted of a venous reservoir, a peristaltic pump and a membrane oxygenator, all of which were connected via 1.6 mm internal diameter silicone tubing (Tygon®; Cole-Parmer Instrument Co., Vernon Hills, Ill.). […] The venous oxygen saturation from the venous return line was measured continuously using an Oximetrix® Monitor and Opticath® Catheter (Abbot Laboratories, North Chicago, Ill.). Arterial blood gases were performed using a IL 1306 blood gas analyzer (Instrument Laboratories, Inc., Lexington, Mass.) with hemoglobin determined using an OSM3 Hemoximeter® (Radiometer Inc., Copenhagen, Denmark). […]

[3] = test system: rat CPB model; test: General behavioural changes after emergence from anesthesia; type: in vivo; conditions: MK801 0.15 mg/kg i.v.
Protocol: After complete of all surgical procedures as described as above, rats were randomly divided into one of four groups. […] CPB group: rats (n=10) were subjected to 60 min of non-pulsatile CPB with a membrane oxygenator receiving a mixture of 30% O2 and 65% N2. CPB+MK801 group: rats (n=10) received MK801 (0.15 mg/kg, i.v.) 15 min prior to 60 min of CPB with similar concentrations of gases as in group 2. The dose of MK801 was chosen from pilot studies, in which its side effect can be kept at minmal level. CPB+Xenon group: rats (n=10) underwent 60 min of CPB with a membrane oxygenator receiving a mixture of 30% O2 and 60% xenon.
All animals were able to drink and to eat after emergence.

[4] = test system: mouse neuronal/glial co-culture; test: LDH release from neuronal/glial co-culture, temperature variation study; type: cell-based; conditions: xenon concentration (% atm)
Protocol: The effects of xenon as a neuroprotectant were investigated at normal body temperature (37° C.) and at a lower temperature (33° C.), for example, as may pertain during CPB. The study was based on measuring LDH release from a mouse neuronal/glial co-culture in accordance with the method described in WO 01/08692 (in the name of Imperial College of Science, Technology and Medicine).

[5] = 1st postoperative day, CPB group 5.2±1.5, sham 7.6±0.8
[6] = 3rd postoperative day, CPB group 5.8±1.8, sham 8.3±0.7

Row | SMILES | neurologic outcome (functional neurologic score, zero to nine scale, best score=9) [1, 5] | neurologic outcome (functional neurologic score, zero to nine scale, best score=9) [1, 6] | neurologic outcome, difference among groups [1] | swimming speeds, difference among groups [2] | duration of behavioural disturbances [3] [h] | general behavioural changes [3] | EC50 for reduction of LDH release ([4]; 33° C.) | EC50 for reduction of LDH release ([4]; 37° C.)
1 | C[C@]12N[C@H](Cc3ccccc31)c1ccccc12 [MK801] | 6.2±1.4 | 7.4±1.8 | no difference | no significant differences | 1 to 2 | hyperactivity, head weaving and related disturbances of motor coordination |  | 
2 | [Xe] [xenon] | 8.3±0.5 | 8.9±0.2 | no difference | no significant differences |  |  | 11.5+/−2.0% | 35.9+/−2.2%
